Data as given in ChEMBL document CHEMBL3808308, “Synergistic potentiation of (-)-lomaiviticin A cytotoxicity by the ATR inhibitor VE-821” (Bioorg Med Chem Lett, 2016).
Calls of active or inactive are those of the source. The calls are words filed in the database; no cut-off is given here.

Tests used:
[1] = test system: K562; assay: Cytotoxicity against human K562 cells assessed as decrease in cell viability up to 2.5 to 10 uM after 24 to 48 hrs by cell titer-glo luminescence assay; assay type: cell-based
[2] = test system: K562; assay: Potentiation of 0.025 nM (-)-lomaiviticin A-induced cytotoxicity against human K562 cells assessed as fraction ratio affected at 5 uM after 24 hrs by cell titer-glo luminescence assay; assay type: functional
[3] = test system: K562; assay: Potentiation of 0.05 nM (-)-lomaiviticin A-induced cytotoxicity against human K562 cells assessed as fraction ratio affected at 5 uM after 24 hrs by cell titer-glo luminescence assay; assay type: functional
[4] = test system: K562; assay: Potentiation of 0.25 nM (-)-lomaiviticin A-induced cytotoxicity against human K562 cells assessed as fraction ratio affected at 5 uM after 24 hrs by cell titer-glo luminescence assay; assay type: functional
[5] = test system: K562; assay: Potentiation of 0.5 nM (-)-lomaiviticin A-induced cytotoxicity against human K562 cells assessed as fraction ratio affected at 5 uM after 24 hrs by cell titer-glo luminescence assay; assay type: functional
[6] = test system: K562; assay: Potentiation of 2.5 nM (-)-lomaiviticin A-induced cytotoxicity against human K562 cells assessed as fraction ratio affected at 5 uM after 24 hrs by cell titer-glo luminescence assay; assay type: functional
[7] = test system: K562; assay: Potentiation of 5 nM (-)-lomaiviticin A-induced cytotoxicity against human K562 cells assessed as fraction ratio affected at 5 uM after 24 hrs by cell titer-glo luminescence assay; assay type: functional
[8] = test system: K562; assay: Potentiation of 0.025 nM (-)-lomaiviticin A-induced cytotoxicity against human K562 cells assessed as combination index at 5 uM after 24 hrs by cell titer-glo luminescence assay; assay type: functional
[9] = test system: K562; assay: Potentiation of 0.05 nM (-)-lomaiviticin A-induced cytotoxicity against human K562 cells assessed as combination index at 5 uM after 24 hrs by cell titer-glo luminescence assay; assay type: functional
[10] = test system: K562; assay: Potentiation of 0.25 nM (-)-lomaiviticin A-induced cytotoxicity against human K562 cells assessed as combination index at 5 uM after 24 hrs by cell titer-glo luminescence assay; assay type: functional
[11] = test system: K562; assay: Potentiation of 0.5 nM (-)-lomaiviticin A-induced cytotoxicity against human K562 cells assessed as combination index at 5 uM after 24 hrs by cell titer-glo luminescence assay; assay type: functional
[12] = test system: K562; assay: Potentiation of 2.5 nM (-)-lomaiviticin A-induced cytotoxicity against human K562 cells assessed as combination index at 5 uM after 24 hrs by cell titer-glo luminescence assay; assay type: functional
[13] = test system: K562; assay: Potentiation of 5 nM (-)-lomaiviticin A-induced cytotoxicity against human K562 cells assessed as combination index at 5 uM after 24 hrs by cell titer-glo luminescence assay; assay type: functional
[14] = test system: K562; assay: Potentiation of 0.025 nM (-)-lomaiviticin A-induced cytotoxicity against human K562 cells assessed as fraction ratio affected at 5 uM after 48 hrs by cell titer-glo luminescence assay; assay type: functional
[15] = test system: K562; assay: Potentiation of 0.05 nM (-)-lomaiviticin A-induced cytotoxicity against human K562 cells assessed as fraction ratio affected at 5 uM after 48 hrs by cell titer-glo luminescence assay; assay type: functional
[16] = test system: K562; assay: Potentiation of 0.25 nM (-)-lomaiviticin A-induced cytotoxicity against human K562 cells assessed as fraction ratio affected at 5 uM after 48 hrs by cell titer-glo luminescence assay; assay type: functional
[17] = test system: K562; assay: Potentiation of 0.5 nM (-)-lomaiviticin A-induced cytotoxicity against human K562 cells assessed as fraction ratio affected at 5 uM after 48 hrs by cell titer-glo luminescence assay; assay type: functional
[18] = test system: K562; assay: Potentiation of 2.5 nM (-)-lomaiviticin A-induced cytotoxicity against human K562 cells assessed as fraction ratio affected at 5 uM after 48 hrs by cell titer-glo luminescence assay; assay type: functional
[19] = test system: K562; assay: Potentiation of 5 nM (-)-lomaiviticin A-induced cytotoxicity against human K562 cells assessed as fraction ratio affected at 5 uM after 48 hrs by cell titer-glo luminescence assay; assay type: functional
[20] = test system: K562; assay: Potentiation of 0.025 nM (-)-lomaiviticin A-induced cytotoxicity against human K562 cells assessed as combination index at 5 uM after 48 hrs by cell titer-glo luminescence assay; assay type: functional
[21] = test system: K562; assay: Potentiation of 0.05 nM (-)-lomaiviticin A-induced cytotoxicity against human K562 cells assessed as combination index at 5 uM after 48 hrs by cell titer-glo luminescence assay; assay type: functional
[22] = test system: K562; assay: Potentiation of 0.25 nM (-)-lomaiviticin A-induced cytotoxicity against human K562 cells assessed as combination index at 5 uM after 48 hrs by cell titer-glo luminescence assay; assay type: functional
[23] = test system: K562; assay: Potentiation of 0.5 nM (-)-lomaiviticin A-induced cytotoxicity against human K562 cells assessed as combination index at 5 uM after 48 hrs by cell titer-glo luminescence assay; assay type: functional
[24] = test system: K562; assay: Potentiation of 2.5 nM (-)-lomaiviticin A-induced cytotoxicity against human K562 cells assessed as combination index at 5 uM after 48 hrs by cell titer-glo luminescence assay; assay type: functional
[25] = test system: K562; assay: Potentiation of 5 nM (-)-lomaiviticin A-induced cytotoxicity against human K562 cells assessed as combination index at 5 uM after 48 hrs by cell titer-glo luminescence assay; assay type: functional
[26] = test system: K562; assay: Cytotoxicity against human K562 cells assessed as effect on cell viability at 0.05 to 0.5 nM after 24 to 48 hrs by cell titer-glo luminescence assay; assay type: functional
[27] = test system: K562; assay: Cytotoxicity against human K562 cells assessed as decrease in cell viability at 1 nM after 48 hrs by cell titer-glo luminescence assay; assay type: functional
[28] = test system: K562; assay: Induction of DNA double-strand breaks in human K562 cells at 50 to 500 pM after 24 hrs by neutral comet assay; assay type: functional, cell-based
[29] = test system: K562; assay: Induction of apoptosis in human K562 cells assessed as gammaH2AX/53BP1 levels up to 250 pM after 48 hrs by DAPI staining based immunofluorescence microscopy; assay type: functional, cell-based
[30] = Cytotoxicity against BRCA2-deficient chinese hamster VC8 cells assessed as decrease in cell viability by clonogenic survival assay; assay type: functional; conditions: Cricetulus griseus, V-C8; read-out: LC50 (the source's name)
[31] = test system: U-251; assay: Cytotoxicity against PTEN-deficient human U251 cells assessed as decrease in cell viability by clonogenic survival assay; assay type: functional; conditions: read-out: LC50 (the source's name)
[32] = Selectivity ratio of LC50 for chinese hamster VC8 cells expressing BRCA2 to LC50 for BRCA2-deficient chinese hamster VC8 cells; assay type: functional, Cricetulus griseus
[33] = test system: U-251; assay: Selectivity ratio of LC50 for human U251 cells expressing PTEN to LC50 for PTEN-deficient human U251 cells; assay type: functional
[34] = test system: K562; assay: Potentiation of 250 pM (-)-lomaiviticin A-induced cytotoxicity against human K562 cells assessed as decrease in cell viability at 10 uM after 48 hrs by cell titer-glo luminescence assay; assay type: functional, cell-based
[35] = test system: K562; assay: Potentiation of 0.0050 uM (-)-lomaiviticin A-induced cytotoxicity against human K562 cells assessed as fraction ratio affected at 5 uM after 24 hrs by cell titer-glo luminescence assay; assay type: functional
[36] = test system: K562; assay: Potentiation of 2.5x10'-5 uM (-)-lomaiviticin A-induced cytotoxicity against human K562 cells assessed as combination index at 5 uM after 24 hrs by cell titer-glo luminescence assay; assay type: functional
[37] = test system: K562; assay: Potentiation of 5x10'-5 uM (-)-lomaiviticin A-induced cytotoxicity against human K562 cells assessed as combination index at 5 uM after 24 hrs by cell titer-glo luminescence assay; assay type: functional
[38] = test system: K562; assay: Potentiation of 2.5x10'-4 uM (-)-lomaiviticin A-induced cytotoxicity against human K562 cells assessed as combination index at 5 uM after 24 hrs by cell titer-glo luminescence assay; assay type: functional
[39] = test system: K562; assay: Potentiation of 5x10'-4 uM (-)-lomaiviticin A-induced cytotoxicity against human K562 cells assessed as combination index at 5 uM after 24 hrs by cell titer-glo luminescence assay; assay type: functional
[40] = test system: K562; assay: Potentiation of 0.0025 uM (-)-lomaiviticin A-induced cytotoxicity against human K562 cells assessed as combination index at 5 uM after 24 hrs by cell titer-glo luminescence assay; assay type: functional
[41] = test system: K562; assay: Potentiation of 0.0050 uM (-)-lomaiviticin A-induced cytotoxicity against human K562 cells assessed as combination index at 5 uM after 24 hrs by cell titer-glo luminescence assay; assay type: functional
[42] = test system: K562; assay: Potentiation of 2.5x10'-5 uM (-)-lomaiviticin A-induced cytotoxicity against human K562 cells assessed as fraction ratio affected at 5 uM after 48 hrs by cell titer-glo luminescence assay; assay type: functional
[43] = test system: K562; assay: Potentiation of 2.5x10'-4 uM (-)-lomaiviticin A-induced cytotoxicity against human K562 cells assessed as fraction ratio affected at 5 uM after 48 hrs by cell titer-glo luminescence assay; assay type: functional
[44] = test system: K562; assay: Potentiation of 5x10'-4 uM (-)-lomaiviticin A-induced cytotoxicity against human K562 cells assessed as fraction ratio affected at 5 uM after 48 hrs by cell titer-glo luminescence assay; assay type: functional
[45] = test system: K562; assay: Potentiation of 0.0025 uM (-)-lomaiviticin A-induced cytotoxicity against human K562 cells assessed as fraction ratio affected at 5 uM after 48 hrs by cell titer-glo luminescence assay; assay type: functional
[46] = test system: K562; assay: Potentiation of 0.0050 uM (-)-lomaiviticin A-induced cytotoxicity against human K562 cells assessed as fraction ratio affected at 5 uM after 48 hrs by cell titer-glo luminescence assay; assay type: functional
[47] = test system: K562; assay: Potentiation of 2.5x10'-5 uM (-)-lomaiviticin A-induced cytotoxicity against human K562 cells assessed as combination index at 5 uM after 48 hrs by cell titer-glo luminescence assay; assay type: functional
[48] = test system: K562; assay: Potentiation of 5x10'-5 uM (-)-lomaiviticin A-induced cytotoxicity against human K562 cells assessed as combination index at 5 uM after 48 hrs by cell titer-glo luminescence assay; assay type: functional
[49] = test system: K562; assay: Potentiation of 2.5x10'-4 uM (-)-lomaiviticin A-induced cytotoxicity against human K562 cells assessed as combination index at 5 uM after 48 hrs by cell titer-glo luminescence assay; assay type: functional
[50] = test system: K562; assay: Potentiation of 5x10'-4 uM (-)-lomaiviticin A-induced cytotoxicity against human K562 cells assessed as combination index at 5 uM after 48 hrs by cell titer-glo luminescence assay; assay type: functional
[51] = test system: K562; assay: Potentiation of 0.0025 uM (-)-lomaiviticin A-induced cytotoxicity against human K562 cells assessed as combination index at 5 uM after 48 hrs by cell titer-glo luminescence assay; assay type: functional
[52] = test system: K562; assay: Potentiation of 0.0050 uM (-)-lomaiviticin A-induced cytotoxicity against human K562 cells assessed as combination index at 5 uM after 48 hrs by cell titer-glo luminescence assay; assay type: functional
[53] = Cytotoxicity against human K562 cells assessed as decrease in cell viability after 48 hrs by cell titer-glo luminescence assay; assay type: cell-based; conditions: read-out: ED50
[54] = test system: K562; assay: Cytotoxicity against human K562 cells assessed as decrease in cell viability after 24 to 48 hrs by cell titer-glo luminescence assay; assay type: cell-based

O=c1cc(N2CCOCC2)oc2c(-c3cccc4c3sc3ccccc34)cccc12
Activity [1]: Non-toxic
Ratio [2]: 0.1436
Ratio [3]: 0.1367
Ratio [4]: 0.1927
Ratio [5]: 0.2584
Ratio [6]: 0.7163
Ratio [7]: 0.9647
CI [8]: 0.0855
CI [9]: 0.1033
CI [10]: 0.2068
CI [11]: 0.3196
CI [12]: 0.8596
CI [13]: 0.9596
Ratio [14]: 0.4881
Ratio [15]: 0.5477
Ratio [16]: 0.5832
Ratio [17]: 0.6811
Ratio [18]: 0.9451
Ratio [19]: 0.9912
CI [20]: 0.4328
CI [21]: 0.4461
CI [22]: 0.8337
CI [23]: 1.056
CI [24]: 1.147
CI [25]: 0.6686

CC[C@@]1(O[C@H]2C[C@H](OC)[C@@H](O)[C@H](C)O2)[C@H](O[C@H]2C[C@@H](O)[C@H](N(C)C)[C@@H](C)O2)c2c(c3c(=O)c4c(O)ccc(O)c4c(=O)c=3c2=[N+]=[N-])C(=O)[C@@H]1[C@H]1C(=O)c2c(c(=[N+]=[N-])c3c(=O)c4c(O)ccc(O)c4c(=O)c2=3)[C@@H](O[C@H]2C[C@@H](O)[C@H](N(C)C)[C@@H](C)O2)[C@@]1(CC)O[C@H]1C[C@H](OC)[C@@H](O)[C@H](C)O1
Activity [26]: <5%
Activity [27]: 34%
Activity [28]: inactive
Activity [29]: Active
CC50 [30]: 0.0015 nM
CC50 [31]: 0.002 nM
RatioLC50 [32]: >11.6
RatioLC50 [33]: >11.6
Activity [34]: Active

O=C(c1cc(Cc2n[nH]c(=O)c3ccccc23)ccc1F)N1CCN(C(=O)C2CC2)CC1 [OLAPARIB]
Activity [1]: Non-toxic
Ratio [35]: 0.03638
CI [36]: 0.182
CI [37]: 28.4346
CI [38]: 29.7935
CI [39]: 31.4921
CI [40]: 45.0812
CI [41]: 1.234
Ratio [42]: 0.00109
Ratio [43]: 0.02866
Ratio [44]: 0.1238
Ratio [45]: 0.3508
Ratio [46]: 0.557
CI [47]: 0.138
CI [48]: 29.2295
CI [49]: 0.2699
CI [50]: 0.358
CI [51]: 1.277
CI [52]: 2.076

O=C(CCCCCCC(=O)Nc1ccccc1)NO [VORINOSTAT]
CC50 at 48 h [53]: 1250 nM
Activity [54]: Dose-dependent effect
